The text below walks through data of US7365056B2, “Substituted 9a-N-(N′-(sulfonyl)phenylcarbamoyl)derivatives of 9-deoxo-9-dihydro-9a-aza-9a-homoerithomycin A and 5-0-desosaminyl-9-deoxo-9-dihydro-9-a-aza-9a-homoerithronolide A” (GlaxoSmithKline istrazivacki centar Zagreb d.o, priority 2002, dated 2008).

Converted amounts (≈) assume the structure as drawn.

This experiment concerns S. pyogenes iMLS resistante strain. Description: MIC by broth dilution (NCCLS M7-A2), S. pyogenes iMLS resistant strain. It is filed as cell-based. The conditions noted are these: MIC = concentration showing 90% growth inhibition, tested range 64 to 0.125 μg/ml. On the procedure:
Final concentration of test substances were in range from 64 to 0.125 μg/ml. MIC levels for all compound were determinated on panel of susceptible and resistant Gram positive bacterial strains (S. aureus, S. pneumoniae and S. pyogenes) and on Gram negative strains (E. coli, H. influenzae, E. faecalis, M. catarrhalis).
Background: Dilution methods test growth across graded concentrations, often in twofold steps.

For orientation: MIC means the least concentration at which growth counts as inhibited. High values mean a less susceptible organism, low ones a more susceptible organism. `CCC1OC(=O)C(C)C(OC2CC(C)(OC)C(O)C(C)O2)C(C)C(OC2OC(C)CC(N(C)C)C2O)C(C)(O)CC(C)CN(C(=O)Nc2ccc(S(=O)(=O)Nc3ccccc3)cc2)C(C)C(O)C1(C)O` (centres unmarked) [Example 4, 9-Deoxo-9-dihydro-9a-N-{N′-[4-(phenylaminosulfonyl)phenyl]carbamoyl}-9a-aza-9a-homoerithromycin A]: the MIC is 2 µg/mL (≈ 1.98 µM). The figure for `CCC1OC(=O)C(C)C(OC2CC(C)(OC)C(O)C(C)O2)C(C)C(OC2OC(C)CC(N(C)C)C2O)C(C)(O)CC(C)CN(C(=O)Nc2ccc(S(N)(=O)=O)cc2)C(C)C(O)C1(C)O` (centres unmarked) [Example 3, 9-Deoxo-9-dihydro-9a-N-{[4-(aminosulfonyl)phenyl]carbamoyl}-9a-aza-9a-homoerithromycin A] is 2 µg/mL (≈ 2.14 µM).
